Measured values reported in US20250129103A1, “METHODS FOR TREATMENT OF CANCER” (Frontier Medicines Corporation, priority 2022, published 2025).
In brackets after ≈: the same amount, converted by molar mass.

Key:
[1] = target: KRAS G12C (GMPPNP-loaded) and PI3Ka (Ras-binding domain) interaction (Homo sapiens (Human), UniProt P01116, C118S/C51S/C80L/G12C); test: Inhibition of KRAS G12C and PI3Ka binding (AlphaScreen); conditions: KRAS G12C loaded with GMPPNP, PI3Ka RBD, 2 hours preincubation; read-out: PI3K RBD K-Ras IC50
How it was run: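 Biotin-AviTag Cys-light KRAS G12C (aa 1-169, C51S/C80L/C118S), GMPPNP-loaded, 1.5 nM, preincubated 2 h with compound, then His-tagged PI3Ka RBD (aa 157-300, 100 nM) plus AlphaScreen beads added for 60-90 min, RT. Buffer Hepes pH 7.4, 10 μM GMPPNP, 2% DMSO; 10-point 1:3 from 50 μM; 4-parameter IC50.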

[2] = Determination of logD (1-octanol / phosphate buffer pH 7.4); format: physicochemical; conditions: 1-octanol/phosphate buffer, pH 7.4, pH 7.4, 1-octanol/phosphate buffer; read-out: Log D, pH 7.4
How it was run: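 Each phase analysed by LCMS after 1 h shaking at 800 rpm and centrifugation, room temperature. Phases were mutually saturated 1-octanol and 100 mM phosphate buffer at pH 7.4. LogD derived from the phase concentrations.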

[3] = target: KRAS G12C (GMPPNP-loaded) and cRAF (Ras-binding domain) interaction (Homo sapiens (Human), UniProt P01116, C118S/C51S/C80L/G12C); test: Inhibition of KRAS G12C and cRAF binding (AlphaScreen); conditions: KRAS G12C loaded with GMPPNP, cRaf RBD, 2 hours preincubation; read-out: Raf-1 RBD K-Ras IC50
How it was run: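 AlphaScreen readout (680 nm excitation, 570 nm emission) of RBD binding after a 60-90 min bead step at room temperature. This step follows 2 h compound exposure of GMPPNP-preloaded KRAS G12C in Hepes pH 7.4 buffer with MgCl2 and 10 μM GMPPNP.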

[4] = Determination of kinetic solubility (pH 7.4); format: physicochemical; conditions: phosphate buffer, pH 7.4, aqueous buffer, kinetic from dmso stock, 50 mM phosphate buffer pH 7.4, read-out: Ksol, pH 7.4
How it was run: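 Solubility taken from filtrate peak areas on a calibration curve (HPLC-UV, LC-MS/MS). Before filtration and centrifugation, compound was shaken for 2 h at room temperature in pH 7.4 50 mM phosphate buffer.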

Chain of KRAS G12C (GMPPNP-loaded) and cRAF (Ras-binding domain) interaction (P01116 other isoform, or with tags, fused parts or gaps G12C/C51S/C80L/C118S): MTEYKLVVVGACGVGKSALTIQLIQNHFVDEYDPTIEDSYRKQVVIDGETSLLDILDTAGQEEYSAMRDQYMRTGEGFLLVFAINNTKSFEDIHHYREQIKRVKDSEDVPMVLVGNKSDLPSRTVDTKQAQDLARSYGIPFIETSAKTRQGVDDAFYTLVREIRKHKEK
Chain of KRAS G12C (GMPPNP-loaded) and PI3Ka (Ras-binding domain) interaction (P01116 other isoform, or with tags, fused parts or gaps G12C/C51S/C80L/C118S): as above

IC50 [1] | logD [2] | IC50 [3] | solubility kinetic at 2 h [4] | SMILES
< 10 nM | 3.45 | < 10 nM | 1.86 µg/mL (≈ 2.53 µM) | Cc1nccc(/C=C/C(=O)N2CCN(c3nc(OC[C@@]45CCCN4C[C@H](F)C5)nc4c(F)c(-c5cccc6cccc(Cl)c56)ncc34)C[C@@H]2CC#N)n1 [Compound 140]
< 10 nM | 3.72 | < 10 nM | 45.2 µg/mL (≈ 62 µM) | N#CC[C@H]1CN(c2nc(OC[C@@]34CCCN3C[C@H](F)C4)nc3c2CCN(c2cccc4cccc(Cl)c24)C3)CCN1C(=O)/C=C/CN1CCOCC1 [Compound 49]
< 10 nM | 3.99 | < 10 nM | 0.03 µg/mL (≈ 0.0391 µM) | Cc1cc(/C=C/C(=O)N2CCN(c3nc(OC[C@@]45CCCN4C[C@H](F)C5)nc4c(F)c(-c5cccc6ccc(F)c(Cl)c56)ncc34)C[C@@H]2CC#N)nc(C)n1 [Example 89, 2-((S)-4-(7-(8-chloro-7-fluoronaphthalen-1-yl)-8-fluoro-2-(((2R,7aS)-2-fluorotetrahydro-1H-pyrrolizin-7a(5H)-yl)methoxy)pyrido[4,3-d]pyrimidin-4-yl)-1-((E)-3-(2,6-dimethylpyrimidin-4-yl)acryloyl)piperazin-2-yl)acetonitrile]
< 10 nM | 3.2 | < 10 nM | 146 µg/mL (≈ 189 µM) | CO[C@H]1CCN(C/C=C/C(=O)N2CCN(c3nc(OC[C@@]45CCCN4C[C@H](F)C5)nc4c(F)c(-c5cccc6ccc(F)c(Cl)c56)ncc34)C[C@@H]2CC#N)C1 [Example 80, 2-((S)-4-(7-(8-chloro-7-fluoronaphthalen-1-yl)-8-fluoro-2-(((2R,7aS)-2-fluorotetrahydro-1H-pyrrolizin-7a(5H)-yl)methoxy)pyrido[4,3-d]pyrimidin-4-yl)-1-((E)-4-((S)-3-methoxypyrrolidin-1-yl)but-2-enoyl)piperazin-2-yl)acetonitrile]
< 10 nM | 2.97 | < 10 nM | 85.5 µg/mL (≈ 110 µM) | CO[C@@H]1CCN(C/C=C/C(=O)N2CCN(c3nc(OC[C@@]45CCCN4C[C@H](F)C5)nc4c(F)c(-c5cccc6ccc(F)c(Cl)c56)ncc34)C[C@@H]2CC#N)C1 [Example 85, 2-((S)-4-(7-(8-chloro-7-fluoronaphthalen-1-yl)-8-fluoro-2-(((2R,7aS)-2-fluorotetrahydro-1H-pyrrolizin-7a(5H)-yl)methoxy)pyrido[4,3-d]pyrimidin-4-yl)-1-((E)-4-((R)-3-methoxypyrrolidin-1-yl)but-2-enoyl)piperazin-2-yl)acetonitrile]
100 to 500 nM | 2.66 | 100 to 500 nM | 80.2 µg/mL (≈ 111 µM) | CCc1noc(/C=C/C(=O)N2CCN(c3nc(OCC45CCCN4CCC5)nc4c(F)c(-c5cccc6cccc(Cl)c56)ncc34)C[C@@H]2CC#N)n1 [Compound 26]
≥ 500 nM | 4.9 | > 500 nM | 0.01 µg/mL (≈ 0.0141 µM) | CCc1noc(/C=C/C(=O)N2CCN(c3nc(OCC45CCCN4CCC5)nc4c3CCN(c3cccc5cccc(Cl)c35)C4)C[C@@H]2CC#N)n1 [Compound 25]
10 to 100 nM | 4.56 | 10 to 100 nM | 0.01 µg/mL (≈ 0.0132 µM) | CC(C)c1noc(/C=C/C(=O)N2CCN(c3nc(OC[C@@]45CCCN4C[C@H](F)C5)nc4c3CCN(c3cccc5ccc(F)c(Cl)c35)C4)C[C@@H]2CC#N)n1 [Compound 128]
< 10 nM | 4.78 | < 10 nM | 0.01 µg/mL (≈ 0.0134 µM) | N#CC[C@H]1CN(c2nc(OC[C@@]34CCCN3C[C@H](F)C4)nc3c2CCN(c2cccc4cccc(Cl)c24)C3)CCN1C(=O)/C=C/c1nc(C(F)F)no1 [Compound 18]
< 10 nM | 3.9 | < 10 nM | 0.01 µg/mL (≈ 0.0135 µM) | Cc1nsc(/C=C/C(=O)N2CCN(c3nc(OC[C@@]45CCCN4C[C@H](F)C5)nc4c(F)c(-c5cccc6cccc(Cl)c56)ncc34)C[C@@H]2CC#N)n1 [Compound 138]
< 10 nM | 3.86 | < 10 nM | 79.1 µg/mL (≈ 103 µM) | C[C@H]1CN(C/C=C/C(=O)N2CCN(c3nc(OC[C@@]45CCCN4C[C@H](F)C5)nc4c(F)c(-c5cccc6cccc(Cl)c56)ncc34)C[C@@H]2CC#N)C[C@H](C)O1 [Compound 188]
< 10 nM | 2.16 | < 10 nM | 16.5 µg/mL (≈ 23.6 µM) | Cc1nccc(/C=C/C(=O)N2CCN(c3nc(OC[C@@]45CCCN4C[C@H](F)C5)nc4c(F)c(-c5cccc6ccccc56)ncc34)C[C@@H]2CC#N)n1 [Compound 215]
< 10 nM | 4.69 | < 10 nM | 2.01 µg/mL (≈ 2.66 µM) | Cc1nsc(/C=C/C(=O)N2CCN(c3nc(OC[C@@]45CCCN4C[C@H](F)C5)nc4c3C[C@@H](C)[C@H](c3nc(N)cc(C)c3C(F)(F)F)C4)C[C@@H]2CC#N)n1 [Compound 192]
